Source: patent US11607462B2, “Systems and methods for minimally-invasive assessment of toxicity-induced tissue injury” (Northwestern University, priority 2017, dated 2023)

Columns and labels:
rats [1] = assay: In vivo single time point SPECT/CT/MRI imaging of ^99mTc-duramycin uptake (toxicity scan)
Procedure: (§1) The single time point studies were terminal so that they allowed immediate tissue retrieval for cross-validation using histopathological analyses. […] Each animal was injected with about 2 mCi of ^99mTc-duramycin and after 1 hour the SPECT/CT/MRI data were acquired. From each group, the animals were immediately euthanized after imaging. The organs and tissues from three randomly selected individuals were collected, fixed and processed for histopathology.
A second group of animals was with methotrexate as directed by the literature in an effort to examine whether early changes in toxicity would correlate with increases in ^99mTc-duramycin uptake.

rats [2] = assay: Histopathology of organs and tissues collected after single time point imaging
Procedure: as §1

rats [3] = assay: Quantitative ex vivo gamma counting of ^99mTc-duramycin uptake in excised tissues after chemotoxic drug
Procedure: This initial quantitative study was conducted by determining changes in radioactivity uptake in excised tissues using gamma counting ex vivo. Experiments were designed to survey changes in ^99mTc-duramycin uptake in tissues from treated versus untreated control groups after administration of a single dosage of each chemotherapeutic drug for each population of animals. […] Accordingly, at designated time post-treatment, ^99mTc-duramycin was injected intravenously and each animal was euthanized for tissue collection and gamma counting. This is a standard practice in radionuclide studies that provides precise, quantitative biodistribution data for measuring changes in tracer uptake.
The data can be expressed in two ways—net change in ^99mTc-duramycin uptake per unit tissue in cyclophosphamide-treated tissues relative to the mean value of the non-treated control population (FIG. 1A), and fold changes in ^99mTc-duramycin uptake over the mean of control (1B).
An organ, such as the kidney, consists of different anatomical components (cortex, medulla, hilum), where the in vivo imaging data provide more spatial information by identifying signal changes within the substructures of an organ (see in vivo sections below).
Although the ex vivo gamma counting is a standard practice in radionuclide studies, a notable limitation is that the tissue collection may be prone to sampling errors. In addition, this approach provides limited spatial information in terms of the distribution within an intact organ/tissue.

rats [4] = settings: cyclophosphamide single dose; each individual normalized to own baseline
Procedure: This approach involved the acquisition of a baseline scan, prior to drug administration, followed by multiple post-treatment scans spanning the acute phase at 8, 48, 96, and 168 hours. […] In addition, the baseline scan for each animal serves as an internal control. The repeated noninvasive imaging allowed continuous monitoring of tissue changes with individualized data analysis.

[5] = cyclophosphamide single dose, day-2
[6] = cyclophosphamide single dose 80 mg/kg i.p., 2 days

O=P1(N(CCCl)CCCl)NCCCO1 (stereo not drawn) [cyclophosphamide]
key tissues with changes in ^99mTc-duramycin uptake (rats [1]; [5]): kidneys—medulla and cortex, spleen, thymus and gut | region of the kidneys affected (rats [1]; [5]): primarily affect the infundibulum of the kidneys | tissues with statistically elevated, relatively low signals (rats [1]; [5]): bones, adipose tissue, heart, lung, muscle, skin and stomach | apoptotic index, kidney medulla (rats [2]; [5]): significantly elevated apoptotic index in the local tissue | apoptotic index, thymus (rats [2]; [5]): significantly elevated apoptotic index | histopathology of bones (epiphysis regions, marrow) (rats [2]; [5]): extensive decellularization in the marrow | tissues with highest fold changes in ^99mTc-duramycin uptake (rats [3]; [6]): thymus, adipose tissue, pancreas, brain, right ventricle, liver and bone | tissues with the largest elevation in ^99mTc-duramycin uptake (rats [3]; [6]): kidneys, liver, spleen, thymus, lung, small intestine and bone | tissues with elevated coefficients of variation compared to the baseline (rats [4]): bone, colon, gut, heart, skin, and thymus

N.N.[Cl][Pt][Cl] [cisplatin]
histopathology of kidney (rats [2]; rat, in vivo): cellular degradation and significantly elevated apoptosis in the cortical region

CN(Cc1cnc2nc(N)nc(N)c2n1)c1ccc(C(=O)N[C@@H](CCC(=O)O)C(=O)O)cc1 [methotrexate]
changes in skin signals (rats [1]; rat, in vivo): non-uniform throughout the body | signals in the joints (rats [1]; rat, in vivo): drastically elevated signals in the joints | tissues with highest changes in terms of fold elevation (rats [1]; rat, in vivo): colon, kidney—medulla, bone, spleen, and kidney—cortex | tissues with the highest signal changes as net ^99mTc-duramycin uptake per unit tissue (rats [1]; rat, in vivo): kidneys and colon | histopathology of joints (rats [2]; rat, in vivo): joint degeneration and thrombosis | change in ^99mTc-duramycin uptake in tissues (rats [3]; rat, in vivo, 100 mg/kg): notable elevation in ^99mTc-duramycin uptake in a number of tissues | most prominent tissues according to fold changes (rats [3]; rat, in vivo, 100 mg/kg): small intestine, colon, liver, thymus and kidneys | tissues with the highest increase in ^99mTc-duramycin uptake (rats [3]; rat, in vivo, 100 mg/kg): kidneys, small intestine, liver, and colon
